PMC9372421 (Clinical and Translational Science, 2022)
Values after ≈ are worked out from the molar mass of the structure shown. Values joined by “and” are separate entries in the source; they are usually repeats but may differ in a detail not shown here. Equal values may be shown once. Read-outs that look alike come from different tables or passages of the source. One block for each compound: values may come before it.

Assays:
[1] = molecular target: T1, human NaV1.5 sodium channel (Homo sapiens, UniProt Q14524)
T1 sequence (Q14524 whole entry): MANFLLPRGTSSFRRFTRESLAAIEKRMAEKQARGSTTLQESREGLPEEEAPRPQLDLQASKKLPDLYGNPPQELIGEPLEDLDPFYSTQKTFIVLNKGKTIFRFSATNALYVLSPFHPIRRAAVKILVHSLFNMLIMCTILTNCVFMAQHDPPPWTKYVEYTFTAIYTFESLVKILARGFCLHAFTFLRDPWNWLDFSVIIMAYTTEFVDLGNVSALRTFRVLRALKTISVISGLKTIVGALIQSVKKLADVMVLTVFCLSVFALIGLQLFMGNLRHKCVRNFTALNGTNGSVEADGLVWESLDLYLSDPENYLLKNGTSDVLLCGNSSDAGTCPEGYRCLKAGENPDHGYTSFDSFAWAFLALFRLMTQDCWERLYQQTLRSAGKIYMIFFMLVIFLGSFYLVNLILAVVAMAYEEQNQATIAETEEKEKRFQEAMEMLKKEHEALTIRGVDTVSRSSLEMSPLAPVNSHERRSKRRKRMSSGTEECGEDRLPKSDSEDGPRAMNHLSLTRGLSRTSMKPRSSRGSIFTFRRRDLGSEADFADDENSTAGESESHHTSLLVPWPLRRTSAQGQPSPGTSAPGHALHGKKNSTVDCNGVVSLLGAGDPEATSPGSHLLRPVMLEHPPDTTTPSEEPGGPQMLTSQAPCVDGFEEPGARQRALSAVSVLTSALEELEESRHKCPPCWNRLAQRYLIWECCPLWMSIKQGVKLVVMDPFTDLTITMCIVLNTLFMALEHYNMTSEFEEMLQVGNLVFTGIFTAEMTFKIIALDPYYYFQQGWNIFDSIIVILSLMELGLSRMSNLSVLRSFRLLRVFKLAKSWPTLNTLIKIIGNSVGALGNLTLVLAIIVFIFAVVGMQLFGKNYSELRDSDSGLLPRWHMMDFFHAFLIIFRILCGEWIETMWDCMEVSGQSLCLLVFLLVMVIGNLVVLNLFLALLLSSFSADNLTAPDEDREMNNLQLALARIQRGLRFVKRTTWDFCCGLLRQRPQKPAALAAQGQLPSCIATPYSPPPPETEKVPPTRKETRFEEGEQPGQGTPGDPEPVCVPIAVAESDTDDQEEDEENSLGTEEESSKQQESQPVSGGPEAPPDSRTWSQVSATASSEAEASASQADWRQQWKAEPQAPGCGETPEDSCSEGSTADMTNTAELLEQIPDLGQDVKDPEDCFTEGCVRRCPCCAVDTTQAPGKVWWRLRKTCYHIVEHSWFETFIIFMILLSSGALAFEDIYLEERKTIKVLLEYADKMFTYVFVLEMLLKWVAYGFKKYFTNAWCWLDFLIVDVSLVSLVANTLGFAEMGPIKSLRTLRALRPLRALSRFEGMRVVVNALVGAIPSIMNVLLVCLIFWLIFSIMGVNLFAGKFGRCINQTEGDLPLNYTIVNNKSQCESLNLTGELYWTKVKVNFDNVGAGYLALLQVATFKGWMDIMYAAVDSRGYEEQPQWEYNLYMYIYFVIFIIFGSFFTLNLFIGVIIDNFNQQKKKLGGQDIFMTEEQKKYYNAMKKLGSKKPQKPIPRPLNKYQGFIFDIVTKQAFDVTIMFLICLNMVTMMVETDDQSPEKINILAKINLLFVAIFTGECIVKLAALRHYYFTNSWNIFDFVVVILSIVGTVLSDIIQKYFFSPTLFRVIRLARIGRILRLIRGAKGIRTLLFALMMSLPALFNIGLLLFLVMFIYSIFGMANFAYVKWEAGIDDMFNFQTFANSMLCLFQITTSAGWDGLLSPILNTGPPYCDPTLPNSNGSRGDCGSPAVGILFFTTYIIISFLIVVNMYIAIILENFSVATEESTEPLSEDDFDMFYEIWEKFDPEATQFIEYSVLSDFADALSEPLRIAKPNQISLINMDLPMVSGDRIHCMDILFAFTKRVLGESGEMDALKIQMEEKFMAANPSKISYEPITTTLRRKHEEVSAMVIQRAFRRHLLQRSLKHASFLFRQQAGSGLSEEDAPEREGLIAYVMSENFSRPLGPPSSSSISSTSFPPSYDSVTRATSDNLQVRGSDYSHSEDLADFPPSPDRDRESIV

[2] = molecular target: T1, human NaV1.5 sodium channel; remark: listed apart in the source
[3] = molecular target: T1, human NaV1.5 sodium channel; assay type: cell-based
[4] = human, in vivo
[5] = tested on: hERG potassium channel; conditions: cited from earlier work
[6] = cited from earlier work
[7] = molecular target: T1, human NaV1.5 sodium channel; assay: cell-based; conditions: IC50 block of peak NaV1.5 current, HEK293, mean ± SEM
[8] = molecular target: T1, human NaV1.5 sodium channel; assay: cell-based; conditions: IC50 block of late NaV1.5 current, mean ± SEM
[9] = tested on: canine purkinje fibers; conditions: 30 μM; historical nonclinical assessment, data not reported; cited from earlier work
[10] = healthy subjects; cited from earlier work
[11] = human, in vivo; remark: listed apart in the source
[12] = molecular target: T1, human NaV1.5 sodium channel; remark: listed apart in the source
[13] = lamotrigine containing regimens vs. no ASMs, cited from earlier work
[14] = lamotrigine 15 μg/ml; cited from earlier work
[15] = each drug at or near its IC50, lamotrigine 280 μM, mean ± SEM
[16] = each drug at or near its IC50, V hold = −120 mV
[17] = each drug at or near its IC50, lamotrigine 280 µM, V hold = −120 mV

SMILES: C=C[C@H]1C[N@@]2CC[C@H]1C[C@@H]2[C@@H](O)c1ccnc2ccc(OC)cc12 [quinidine]
τoff Tau slow ([1]; each drug at or near its IC50, −120 mV): 37.7 ± 5.9 s | Tonic block of NaV1.5, percent inhibition [2, 15]: 6.7 ± 1.2% | τon contribution by the slow component of the exponential [3, 16]: 26.1%

SMILES: Cc1cccc(C)c1OCC(C)N (centres unmarked) [mexiletine]
τoff Percent Fast [1]: 83.2% | τoff Tau fast [1]: 0.8 ± 0.03 s | Tonic block of NaV1.5, percent inhibition ([2]; human): 9.2 ± 1.5% | τon Percent Fast [3]: 92.9% and > 92%

SMILES: O=C(NCC1CCCCN1)c1cc(OCC(F)(F)F)ccc1OCC(F)(F)F (centres unmarked) [flecainide]
Tonic block of NaV1.5, percent inhibition [2, 15]: 1.6 ± 1.2% | τon contribution by the slow component of the exponential [3, 16]: 45.1% | τon Percent Fast [3, 17]: 54.9%

free concentration [4]: 6600 ng/mL | peak unbound concentration [4]: 3.15 to 24.5 µM | expected increase in PR interval (absolute values) (at 15 μg/ml, healthy subjects, outlier included): 18.15 ms | decrease in QRS interval (absolute values) (at 15 μg/ml, outlier included): 5.94 ms | expected PR prolongation relative to baseline (at ~20 μg/ml, highest peak concentrations reported in patients): 8.24 ms | increase in PR interval as change from baseline (healthy subjects, outlier included): up to 6.18 ms | mean PR interval (human, in vivo): 169 ms | slope in PR change from baseline per μg/ml of lamotrigine (outlier included): 0.412 ms/µg/mL | subjects with QRS interval >120 ms while on lamotrigine (outlier included): None
SMILES: Nc1nnc(-c2cccc(Cl)c2Cl)c(N)n1 [lamotrigine, Lamotrigine]
recovery from block, rate fold faster than quinidine [1]: 1.4 fold | off-rate kinetics fold faster than flecainide ([1]; high concentration of lamotrigine): > 86 fold | τoff slow component, fold faster than quinidine's slow time constant ([1]; lamotrigine 25 μM): 2.4 fold | τoff Percent Fast ([1]; lamotrigine 25 µM, −120 mV): 58.0% | τoff Tau fast ([1]; lamotrigine 25 µM, −120 mV): 0.8 ± 0.1 s | τoff Tau slow ([1]; lamotrigine 25 µM, −120 mV): 15.6 ± 5.0 s | IC50 [5]: 229 µM | potency (IC50) to block the hERG potassium channel [5]: 58.6 µg/mL (≈ 229 µM) | concentrations expected in over 95% of patients [6]: below 15 μg/ml | highest values for peak concentrations reported in patients [6]: ~ 20 μg/ml | IC50 ([7]; V hold = −95 mV, 0.1 Hz): 28.8 µM and 28.9 µM | IC50 ([7]; V hold = −120 mV): 280 µM | Tonic block of NaV1.5, percent inhibition [2, 15]: 26.8 ± 1.4% | Tonic block of NaV1.5, percent inhibition ([2]; lamotrigine 25 μM, mean ± SEM): 2.6 ± 2.1% | IC50 ([8]; ramp epoch): 12.1 µM | IC50 ([8]; −15 mV epoch): 17.2 µM | inhibition of action potential upstroke (dV/dt) [9]: < 10% | QTc interval, QRS duration, or blood pressure [10]: no increase | QTcF [10]: small reductions | heart rate and mean PR interval [10]: small increases | safety reports relating to the circulatory system [11]: 1483 reports | safety reports relating to the circulatory system, share of all reports [11]: 0.021% | fold difference in potency at a depolarized potential [12]: 10 fold | τon fast component, fold of mexiletine [3]: ≤ 1.6 fold | τon Percent Fast [3, 17]: > 92% | % block at 200th pulse ([3]; lamotrigine 25 µM, V hold = −120 mV): 25.5 ± 1.5% and 26% | τon fast component, fold faster than flecainide ([3]; lamotrigine versus flecainide): 8.4 fold | τon fast component, fold faster than quinidine ([3]; lamotrigine versus quinidine): 4.7 fold | SUDEP odds ratio (OR) ([13]; 95% CI: 0.31–0.97): 0.55 | reduction in SUDEP risk [13]: 45% | percent of the maximum effect of flecainide [14]: ~ 29%
